PubChem BioAssay (NCI)
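GI50: concentration for 50% inhibition of growth. At the TGI there is no net growth.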

Experiments:
Experiment in all cases: NCI anticancer screen, dose series, 384-well format
DU-145 prostate = tested on: DU-145 prostate
SK-OV-3 ovarian = tested on: SK-OV-3 ovarian
LOX IMVI melanoma = tested on: LOX IMVI melanoma
SF-539 CNS = tested on: SF-539 CNS
MALME-3M melanoma = tested on: MALME-3M melanoma
M14 melanoma = tested on: M14 melanoma
A498 renal = tested on: A498 renal
NCI-H460 NSCLC = tested on: NCI-H460 NSCLC
SNB-19 CNS = tested on: SNB-19 CNS
MDA-MB-435 melanoma = tested on: MDA-MB-435 melanoma
UACC-257 melanoma = tested on: UACC-257 melanoma
OVCAR-5 ovarian = tested on: OVCAR-5 ovarian
NCI-H23 lung = tested on: NCI-H23 lung
SK-MEL-28 melanoma = tested on: SK-MEL-28 melanoma
PC-3 prostate = tested on: PC-3 prostate
MOLT-4 leukemia = tested on: MOLT-4 leukemia
TK-10 renal = tested on: TK-10 renal
NCI/ADR-RES ovarian = tested on: NCI/ADR-RES ovarian
ACHN renal = tested on: ACHN renal
NCI-H226 lung = tested on: NCI-H226 lung
A549 NSCLC = tested on: A549 NSCLC
SF-268 CNS = tested on: SF-268 CNS
SN12C renal = tested on: SN12C renal
IGROV1 ovarian = tested on: IGROV1 ovarian
RXF 393 renal = tested on: RXF 393 renal
UO-31 renal = tested on: UO-31 renal
UACC-62 melanoma = tested on: UACC-62 melanoma
HL-60(TB) leukemia = tested on: HL-60(TB) leukemia
786-0 renal = tested on: 786-0 renal
U251 glioblastoma = tested on: U251 glioblastoma
K-562 leukemia = tested on: K-562 leukemia
CAKI-1 renal = tested on: CAKI-1 renal
COLO 205 colon = tested on: COLO 205 colon
SF-295 CNS = tested on: SF-295 CNS
CCRF-CEM leukemia = tested on: CCRF-CEM leukemia
NCI-H322M lung = tested on: NCI-H322M lung
SK-MEL-5 melanoma = tested on: SK-MEL-5 melanoma
HCT-116 colon = tested on: HCT-116 colon
HOP-92 NSCLC = tested on: HOP-92 NSCLC
MDA-MB-468 breast = tested on: MDA-MB-468 breast
HCC-2998 colon = tested on: HCC-2998 colon
NCI-H522 lung = tested on: NCI-H522 lung
KM12 colon = tested on: KM12 colon
SW-620 colon = tested on: SW-620 colon
T-47D breast = tested on: T-47D breast
SK-MEL-2 melanoma = tested on: SK-MEL-2 melanoma
SR leukemia = tested on: SR leukemia
HT29 colon = tested on: HT29 colon
MDA-MB-231 breast = tested on: MDA-MB-231 breast
MCF7 breast = tested on: MCF7 breast
OVCAR-3 ovarian = tested on: OVCAR-3 ovarian
OVCAR-4 ovarian = tested on: OVCAR-4 ovarian
OVCAR-8 ovarian = tested on: OVCAR-8 ovarian
RPMI-8226 leukemia = tested on: RPMI-8226 leukemia
HCT-15 colon = tested on: HCT-15 colon

CCc1cc(Nc2nccc(-c3c(-c4ccc(OC)c(C(=O)Nc5c(F)cccc5F)c4)nc4ccccn34)n2)c(OC)cc1N1CCC(N2CCN(S(C)(=O)=O)CC2)CC1 was tested, and the GI50 (DU-145 prostate) was > 100 µM, the TGI (DU-145 prostate) was > 100 µM and the GI50 (SK-OV-3 ovarian) was > 100 µM. For the same compound, the TGI (SK-OV-3 ovarian) was > 100 µM, the GI50 (LOX IMVI melanoma) was > 100 µM and the TGI (LOX IMVI melanoma) was > 100 µM. For the same compound, the GI50 (SF-539 CNS) was > 100 µM, the TGI (SF-539 CNS) was > 100 µM and the GI50 (MALME-3M melanoma) was > 100 µM. For the same compound, the TGI (MALME-3M melanoma) was > 100 µM, the GI50 (M14 melanoma) was > 100 µM and the TGI (M14 melanoma) was > 100 µM. For the same compound, the GI50 (A498 renal) was > 100 µM, the TGI (A498 renal) was > 100 µM and the GI50 (NCI-H460 NSCLC) was > 100 µM. For the same compound, the TGI (NCI-H460 NSCLC) was > 100 µM, the GI50 (SNB-19 CNS) was > 100 µM and the TGI (SNB-19 CNS) was > 100 µM. For the same compound, the GI50 (MDA-MB-435 melanoma) was > 100 µM, the TGI (MDA-MB-435 melanoma) was > 100 µM and the GI50 (UACC-257 melanoma) was > 100 µM. The TGI (UACC-257 melanoma) was > 100 µM, the GI50 (OVCAR-5 ovarian) was > 100 µM and the TGI (OVCAR-5 ovarian) was > 100 µM. For the same compound, the GI50 (NCI-H23 lung) was > 100 µM, the TGI (NCI-H23 lung) was > 100 µM and the GI50 (SK-MEL-28 melanoma) was > 100 µM. The TGI (SK-MEL-28 melanoma) was > 100 µM, the GI50 (PC-3 prostate) was > 100 µM and the TGI (PC-3 prostate) was > 100 µM. For the same compound, the GI50 (MOLT-4 leukemia) was 645 nM, the TGI (MOLT-4 leukemia) was > 100 µM and the GI50 (TK-10 renal) was > 100 µM. For the same compound, the TGI (TK-10 renal) was > 100 µM, the GI50 (NCI/ADR-RES ovarian) was > 100 µM and the TGI (NCI/ADR-RES ovarian) was > 100 µM. For the same compound, the GI50 (ACHN renal) was > 100 µM, the TGI (ACHN renal) was > 100 µM and the GI50 (NCI-H226 lung) was > 100 µM. The TGI (NCI-H226 lung) was > 100 µM, the GI50 (A549 NSCLC) was > 100 µM and the TGI (A549 NSCLC) was > 100 µM. The GI50 (SF-268 CNS) was > 100 µM, the TGI (SF-268 CNS) was > 100 µM and the GI50 (SN12C renal) was > 100 µM. For the same compound, the TGI (SN12C renal) was > 100 µM, the GI50 (IGROV1 ovarian) was > 100 µM and the TGI (IGROV1 ovarian) was > 100 µM. The GI50 (RXF 393 renal) was 750 nM, the TGI (RXF 393 renal) was > 100 µM and the GI50 (UO-31 renal) was > 100 µM. The TGI (UO-31 renal) was > 100 µM, the GI50 (UACC-62 melanoma) was > 100 µM and the TGI (UACC-62 melanoma) was > 100 µM. The GI50 (HL-60(TB) leukemia) was > 100 µM, the TGI (HL-60(TB) leukemia) was > 100 µM and the GI50 ([…]-0 renal) was > 100 µM. For the same compound, the TGI (786-0 renal) was > 100 µM, the GI50 (U251 glioblastoma) was > 100 µM and the TGI (U251 glioblastoma) was > 100 µM. For the same compound, the GI50 (K-562 leukemia) was > 100 µM, the TGI (K-562 leukemia) was > 100 µM and the GI50 (CAKI-1 renal) was > 100 µM. For the same compound, the TGI (CAKI-1 renal) was > 100 µM, the GI50 (COLO 205 colon) was > 100 µM and the TGI (COLO 205 colon) was > 100 µM. The GI50 (SF-295 CNS) was > 100 µM, the TGI (SF-295 CNS) was > 100 µM and the GI50 (CCRF-CEM leukemia) was > 100 µM. The TGI (CCRF-CEM leukemia) was > 100 µM, the GI50 (NCI-H322M lung) was > 100 µM and the TGI (NCI-H322M lung) was > 100 µM. The GI50 (SK-MEL-5 melanoma) was > 100 µM, the TGI (SK-MEL-5 melanoma) was > 100 µM and the GI50 (HCT-116 colon) was > 100 µM. For the same compound, the TGI (HCT-116 colon) was > 100 µM, the GI50 (HOP-92 NSCLC) was > 100 µM and the TGI (HOP-92 NSCLC) was > 100 µM. The GI50 (MDA-MB-468 breast) was 935 nM, the TGI (MDA-MB-468 breast) was > 100 µM and the GI50 (HCC-2998 colon) was > 100 µM. For the same compound, the TGI (HCC-2998 colon) was > 100 µM, the GI50 (NCI-H522 lung) was > 100 µM and the TGI (NCI-H522 lung) was > 100 µM. For the same compound, the GI50 (KM12 colon) was > 100 µM, the TGI (KM12 colon) was > 100 µM and the GI50 (SW-620 colon) was > 100 µM. For the same compound, the TGI (SW-620 colon) was > 100 µM, the GI50 (T-47D breast) was 587 nM and the TGI (T-47D breast) was > 100 µM. For the same compound, the GI50 (SK-MEL-2 melanoma) was > 100 µM, the TGI (SK-MEL-2 melanoma) was > 100 µM and the GI50 (SR leukemia) was 932 nM. The TGI (SR leukemia) was > 100 µM, the GI50 (HT29 colon) was > 100 µM and the TGI (HT29 colon) was > 100 µM. For the same compound, the GI50 (MDA-MB-231 breast) was 18.6 µM, the TGI (MDA-MB-231 breast) was > 100 µM and the GI50 (MCF7 breast) was > 100 µM. The TGI (MCF7 breast) was > 100 µM, the GI50 (OVCAR-3 ovarian) was > 100 µM and the TGI (OVCAR-3 ovarian) was > 100 µM. The GI50 (OVCAR-4 ovarian) was > 100 µM, the TGI (OVCAR-4 ovarian) was > 100 µM and the GI50 (OVCAR-8 ovarian) was 1790 nM. The TGI (OVCAR-8 ovarian) was > 100 µM, the GI50 (RPMI-8226 leukemia) was 908 nM and the TGI (RPMI-8226 leukemia) was > 100 µM. The GI50 (HCT-15 colon) was > 100 µM and the TGI (HCT-15 colon) was > 100 µM.
